The values that follow come from publication doi:10.1101/2020.08.20.259572v2 (biorxiv, 2020).

Series [1] deals with T1, GlyT1b (hGlyT1b; Flag-Glyt1b) (Homo sapiens, UniProt P48067).
T1 sequence (P48067 15-652 isoform P48067-3): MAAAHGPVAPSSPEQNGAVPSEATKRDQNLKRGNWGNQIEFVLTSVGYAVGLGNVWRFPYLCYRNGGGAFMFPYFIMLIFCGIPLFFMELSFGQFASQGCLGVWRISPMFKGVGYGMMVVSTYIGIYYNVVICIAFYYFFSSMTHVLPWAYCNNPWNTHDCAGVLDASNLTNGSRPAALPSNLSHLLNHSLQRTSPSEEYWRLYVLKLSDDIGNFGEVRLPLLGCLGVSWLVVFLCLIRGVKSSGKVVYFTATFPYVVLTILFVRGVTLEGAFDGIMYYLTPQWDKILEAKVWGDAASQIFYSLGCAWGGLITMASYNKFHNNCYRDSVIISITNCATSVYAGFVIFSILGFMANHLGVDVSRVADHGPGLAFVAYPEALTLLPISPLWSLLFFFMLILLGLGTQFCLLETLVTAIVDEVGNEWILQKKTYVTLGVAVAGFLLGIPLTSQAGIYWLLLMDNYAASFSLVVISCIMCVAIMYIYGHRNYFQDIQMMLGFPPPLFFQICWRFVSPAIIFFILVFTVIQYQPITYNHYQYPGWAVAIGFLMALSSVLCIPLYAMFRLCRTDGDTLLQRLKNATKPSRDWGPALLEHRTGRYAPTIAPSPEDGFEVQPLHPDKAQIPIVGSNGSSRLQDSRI
Nature of the series: displacement of […] [3H]CHIBA-3007, membrane filtration assay. The series is classed as binding. To be noted: 150 mM NaCl, 10 mM HEPES pH 7.4, RT.

Substrate in series [2]: NCC(=O)O
Nature of the series: [3H]glycine uptake into transfected HEK MSR cells. As to conditions: 0.05-200 µM glycine. Type of series: cell-based, Homo sapiens.

In series [1], `NCC(=O)O` [glycine] gave a KI of 330 ± 10 µM.

B1: GlyT1b (hGlyT1b; Flag-Glyt1b) (Homo sapiens) (protein)
chain: MAAAHGPVAPSSPEQNGAVPSEATKRDQNLKRGNWGNQIEFVLTSVGYAVGLGNVWRFPYLCYRNGGGAFMFPYFIMLIFCGIPLFFMELSFGQFASQGCLGVWRISPMFKGVGYGMMVVSTYIGIYYNVVICIAFYYFFSSMTHVLPWAYCNNPWNTHDCAGVLDASNLTNGSRPAALPSNLSHLLNHSLQRTSPSEEYWRLYVLKLSDDIGNFGEVRLPLLGCLGVSWLVVFLCLIRGVKSSGKVVYFTATFPYVVLTILFVRGVTLEGAFDGIMYYLTPQWDKILEAKVWGDAASQIFYSLGCAWGGLITMASYNKFHNNCYRDSVIISITNCATSVYAGFVIFSILGFMANHLGVDVSRVADHGPGLAFVAYPEALTLLPISPLWSLLFFFMLILLGLGTQFCLLETLVTAIVDEVGNEWILQKKTYVTLGVAVAGFLLGIPLTSQAGIYWLLLMDNYAASFSLVVISCIMCVAIMYIYGHRNYFQDIQMMLGFPPPLFFQICWRFVSPAIIFFILVFTVIQYQPITYNHYQYPGWAVAIGFLMALSSVLCIPLYAMFRLCRTDGDTLLQRLKNATKPSRDWGPALLEHRTGRYAPTIAPSPEDGFEVQPLHPDKAQIPIVGSNGSSRLQDSRI
Usually Km stands for the concentration of substrate that gives half-maximal velocity. Take B1: the Michaelis constant (Km) in series [2] is given as 35.2 ± 2.1 µM.
